Data reported in US9045505B2, “Nitric oxide donors” (University of Otago, priority 2006, dated 2015).

Tested on: Langendorff-perfused mouse hearts
Assay: Cardiac ischemia-reperfusion injury in Langendorff-perfused mouse hearts (ex vivo)
Procedure: FIG. 16 is a series of graphs showing the vasodilatory and tissue protective effects of MitoSNAP. (a) Dose-response curves for the effect of MitoSNAP and related compounds on blood vessel relaxation. The effects of intact or decomposed MitoSNAP and SNAP on pre-contracted rat thoracic aorta mounted in a myograph were determined Data represent means±sem. For MitoSNAP n=8 from experiments on two independent rat aorta preparations. For decomposed MitoSNAP and SNAP experiments the data (n=4) are from one aorta preparation. (b) EC50 for the effect of MitoSNAP and SNAP on blood vessel relaxation. The EC50 values were determined from experiments shown in (a) above. ***p<0.001 by Student's unpaired t-test. (c & d) MitoSNAP protects against I/R injury in Langendorff-perfused mouse hearts. Hearts from C57BL6 mice were Langendorff perfused and subjected to 25 min global normothermic ischemia followed by 1 h of reperfusion. MitoSNAP or MitoNAP (100 nM final), or vehicle carrier, was added via an infusion port above the aortic cannula during reperfusion. Hearts were then stained with 2,3,5-triphenyltetrazolium chloride (TTC) to visualize infarct. (c) Protection of heart function by MitoSNAP during I/R injury. Left ventricular contractile function was recorded throughout the I/R protocol.
FIG. 18 is a graph showing the effect of pre-ischemic administration of MitoSNAP or MitoNAP on recovery of heart function (rate pressure product) from IR injury. Experiments were carried out exactly as described in FIGS. 16c & 16d, except that MitoSNO1 or MitoNAP were infused into the heart for 20 min, followed by a 2 min wash-out period, prior to the onset of ischemia. White symbols=vehicle control, black symbols=MitoSN01, gray symbols=MitoNAP. Data are means±sem, n≧6. […]
There is considerable evidence pointing to mitochondrial damage during the reperfusion phase of cardiac ischemia-reperfusion (I/R) injury. […] Therefore we determined if MitoSNAP could decrease I/R injury in a mouse heart Langendorff model (FIGS. 16c & d). […]

## CC(=O)NC(C(=O)NCCCCC[P+](c1ccccc1)(c1ccccc1)c1ccccc1)C(C)(C)SN=O.CS(=O)(=O)[O-] (stereo not drawn) [MitoSNAP, [5-(2-acetylamino-3-methyl-3-nitrosothio-butyrylamino)-penty1]-triphenylphosphonium methanesulfonate]
100 nM during reperfusion
  infarct size: decrease in infarct size
100 nM during reperfusion, 25 min ischemia, 1 h reperfusion
  recovery of heart function (rate pressure product): better recovery of heart function
Delivered before the I/R injury
  protection against I/R injury: small degree of protection
